These results are taken from patent publication US8658131B2, “Compounds comprising 4-benzoylpiperidine as a sigma-1-selective ligand” (Washington University, priority 2010, dated 2014).

Several values for one entry are separate records, joined by “and”; a condition that tells them apart may be missing. Equal entries are not always repeated. Structures can show the parent of a compound that is named as a salt. Where two headings read alike, the source gives them in different places.

For one test, the target named is T1, σ1 receptor (Cavia porcellus, UniProt Q60492).
T1 construct: using guinea pig brain membrane homogenates; from tissue; host or cells: guinea pig brain membrane homogenates
T1 sequence (Q60492 whole entry): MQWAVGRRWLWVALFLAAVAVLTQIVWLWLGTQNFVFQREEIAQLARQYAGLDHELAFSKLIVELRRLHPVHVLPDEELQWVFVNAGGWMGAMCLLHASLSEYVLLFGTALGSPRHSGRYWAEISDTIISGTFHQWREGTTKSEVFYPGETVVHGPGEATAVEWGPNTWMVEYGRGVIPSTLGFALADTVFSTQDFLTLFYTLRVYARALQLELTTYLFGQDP
Put plainly: σ1 receptor binding assay, (+)-[3H]pentazocine, guinea pig brain membranes.

Test [1] addresses T2, σ2 receptor (Rattus norvegicus, UniProt Q5U3Y7).
T2 sequence (Q5U3Y7 1-176): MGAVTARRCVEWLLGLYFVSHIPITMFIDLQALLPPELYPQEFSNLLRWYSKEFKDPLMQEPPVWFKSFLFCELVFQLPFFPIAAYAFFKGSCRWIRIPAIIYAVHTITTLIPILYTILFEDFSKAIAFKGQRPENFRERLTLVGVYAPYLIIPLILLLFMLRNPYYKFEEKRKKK
The experiment in a line: σ2 receptor binding assay, [3H]DTG, rat liver membrane homogenates. The arrangement: conducted using rat liver membrane homogenates; from tissue; host or cells: rat liver membrane homogenates.
Experimental: (§1) The compounds were dissolved in DMF, DMSO, or ethanol, and then diluted in 50 mM Tris-HCl buffer containing 150 mM NaCl and 100 mM EDTA at pH 7.4, prior to performing the σ1 and σ2 receptor binding assays.
The incubation time was 2 h at room temperature. Nonspecific binding was determined from samples that contained 10 μM of cold haloperidol. All other procedures were identical to those described for the σ1 receptor binding assay above.
(§2) Ki values were calculated using the method of Cheng and Prusoff and are presented as the mean (±1 SEM).

Test [2] addresses T3, human vesicular acetylcholine transporter (VAChT) (Homo sapiens, UniProt Q16572).
T3 construct: expressed in transfected cells; host or cells: PC12 A123.7 cells (crude extract / homogenized, partially clarified cells)
T3 sequence (Q16572 1-532): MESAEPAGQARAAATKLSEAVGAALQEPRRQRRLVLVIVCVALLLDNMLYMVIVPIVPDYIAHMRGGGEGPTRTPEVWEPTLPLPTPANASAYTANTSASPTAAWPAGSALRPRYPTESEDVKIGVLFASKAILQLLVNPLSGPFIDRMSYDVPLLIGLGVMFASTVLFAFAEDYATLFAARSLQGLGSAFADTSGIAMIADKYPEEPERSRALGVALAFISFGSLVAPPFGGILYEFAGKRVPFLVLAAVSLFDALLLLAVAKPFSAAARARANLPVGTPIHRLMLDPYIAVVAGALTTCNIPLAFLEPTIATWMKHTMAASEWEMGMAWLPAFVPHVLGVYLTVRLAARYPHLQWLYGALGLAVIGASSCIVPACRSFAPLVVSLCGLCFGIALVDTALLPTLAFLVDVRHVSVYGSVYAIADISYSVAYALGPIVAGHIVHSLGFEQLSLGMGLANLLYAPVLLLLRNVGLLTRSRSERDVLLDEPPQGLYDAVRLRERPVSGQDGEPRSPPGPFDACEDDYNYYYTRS
Put plainly: VAChT binding assay, (−)-[3H]vesamicol, human VAChT expressed in PC12 cells.
Experimental: In vitro binding assays of these novel compounds to VAChT were conducted with human vesicular acetylcholine transporter (VAChT) permanently expressed in PC12^A123.7 cells at about 50 pmol/mg of crude extract. […] Duplicate data were averaged and fitted by regression with a rectangular hyperbola to estimate the Ki value of the novel compound. All compounds were independently assayed at least two times.

For a further test, the target named is T4, VAChT (Tetronarce californica, UniProt P81721).
T4 construct: using highly purified Torpedo synaptic vesicles; from tissue
T4 sequence (P81721 1-515): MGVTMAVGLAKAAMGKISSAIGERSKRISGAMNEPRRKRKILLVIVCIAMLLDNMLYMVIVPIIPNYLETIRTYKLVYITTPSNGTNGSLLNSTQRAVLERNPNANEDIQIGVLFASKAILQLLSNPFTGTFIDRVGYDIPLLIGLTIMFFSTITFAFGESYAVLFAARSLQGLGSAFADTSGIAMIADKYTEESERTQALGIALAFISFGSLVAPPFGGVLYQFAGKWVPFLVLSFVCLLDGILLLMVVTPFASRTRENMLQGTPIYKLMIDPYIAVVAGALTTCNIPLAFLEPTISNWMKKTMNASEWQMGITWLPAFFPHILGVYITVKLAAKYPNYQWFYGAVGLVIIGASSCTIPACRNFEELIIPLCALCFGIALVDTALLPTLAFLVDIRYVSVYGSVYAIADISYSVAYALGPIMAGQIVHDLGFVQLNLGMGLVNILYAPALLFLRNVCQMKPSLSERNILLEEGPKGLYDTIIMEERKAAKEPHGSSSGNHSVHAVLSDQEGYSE
The experiment in a line: biochemical. To be noted: for VAChT/σ selectivity: in words; for σ1/VAChT: selectivity index Ki (σ1)/Ki (VAChT); for σ2/VAChT: selectivity index Ki (σ2)/Ki (VAChT). The format is binding.

Test [3] concerns the target T2, σ2 receptor. Put plainly: σ2 binding of Table 5 compounds. The arrangement: species or system guinea pig. The following applies: read-out: σ2 Ki (nM) ± SEM; Table 6. The method, then: Compounds were tested for VAChT binding using highly purified Torpedo synaptic vesicles. The σ1 and σ2 binding affinities were tested in rat brain and in guinea pig membranes, respectively. Structures and Equilibrium binding constants (Ki) are reported in Table 5 and Table 6, respectively. As in previous studies, we define ligand selectivity in terms of a selectivity index which is calculated as Ki (σ1 or σ2)/Ki (VAChT).
Consequently, we also screened the target compounds for sigma binding to identify selective VAChT ligands from this new structural class of agents.

[4] abbreviates: Table 4, Ki values of VAChT specific compounds, tissue not given, read-out: Sigma-1 σ1.
The mark [5] stands for this setting: Table 4, Ki values of VAChT specific compounds, tissue not given, read-out: Sigma-2 σ1.
Where [6] appears, read: Table 4, Ki values of VAChT specific compounds, source not given, read-out: VAChT.
The mark [7] stands for this setting: expressed human VAChT, mean ± SEM, read-out: VAChT (Ki).
The mark [8] stands for this setting: homogenates of rat liver, mean ± SEM, read-out: σ2 (Ki).

Experimental for σ1 receptor: as §1
The total incubation time was 90 min at room temperature. Nonspecific binding was determined from samples that contained 10 μM of cold haloperidol. After 90 min, the reaction was quenched by adding 150 μL of ice-cold wash buffer (10 mM Tris-HCl, 150 mM NaCl, pH 7.4) using a 96 channel transfer pipet (Fisher Scientific, Pittsburgh, Pa.). The samples were harvested and filtered rapidly through a 96-well fiberglass filter plate (Millipore, Billerica, Mass.) that had been presoaked with 100 μL of 50 mM Tris-HCl buffer at pH 8.0 for 1 h.
as §2

In the case of `COc1ccc(C(=O)C2CCN(C3Cc4ccccc4CC3O)CC2)cc1` (centres unmarked) [DZT-I-107], the Ki on σ1 receptor (setting [4]) is 132 ± 10.1 nM; at σ2 receptor [1] (setting [5]), 1953 ± 13.1 nM; in test [2] (setting [6]), 4.64 ± 0.47 nM.

On to `COc1cccnc1C(=O)C1CCN(C2Cc3ccccc3CC2O)CC1` (centres unmarked) [TZ-4-1-92, (1-(3-Hydroxy-1,2,3,4-tetrahydronaphthalen-2-yl)piperidin-4-yl)(3-methoxypyridin-2-yl)methanone oxalate], for which, at VAChT, the Ki amounted to 121 ± 29.2 nM, the VAChT/σ selectivity result is “poor selectivity”, the σ1/VAChT was found to be 173.3 and the σ2/VAChT is on record as 12.9. Moreover, the Ki at σ2 receptor [3] was 1560 ± 63 nM.

As to `Cc1ccc(C(=O)C2CCN(C3Cc4c(N)cccc4CC3O)CC2)cn1` (centres unmarked) [OS-5-70, (1-(8-amino-3-hydroxy-1,2,3,4-tetrahydronaphthalen-2-yl)piperidin-4-yl)(6-methylpyridin-3-yl)methanone oxalate], the Ki on σ2 receptor [1] (setting [5]) is 27500 ± 6940 nM; at VAChT it was 48 ± 11.4 nM; in test [2] (setting [6]) it was 48 ± 11.4 nM; on σ2 receptor [3], 27500 ± 6940 nM.

As to `Nc1cccc2c1CC(N1CCC(C(=O)c3ccc(F)cc3)CC1)C(O)C2` (single isomer, unassigned) [WW-1-88-2], the values for the Ki (at σ1 receptor (setting [4]); at σ2 receptor [1] (setting [5]); in test [2] (setting [6])) were 3550 ± 438 nM, 6890 ± 546 nM and 20.9 ± 4.98 nM, respectively.

Regarding `Cn1ccc(C(=O)C2CCN(C3Cc4ccccc4CC3O)CC2)cc1=O` (centres unmarked) [TZ-4-1-150, 4-(1-(3-Hydroxy-1,2,3,4-tetrahydronaphthalen-2-yl)piperidine-4-carbonyl)-1-methylpyridin-2(1H)-one oxalate], on VAChT, the Ki was determined as 66.2 ± 10.2 nM, the VAChT/σ selectivity entry is on record as “moderate or high”, the σ1/VAChT was determined as 50.5 and the σ2/VAChT is 32.1. In addition, the Ki at σ2 receptor [3] turned out to be 2120 ± 251 nM.

For the compound `COc1ccc(C(=O)N2CCC(O)C(N3CCC(C(=O)c4ccc(F)cc4)CC3)C2)cc1` (centres unmarked) [WW-1-35], the Ki on σ2 receptor [1] (setting [5]) was > 10000 nM.

For the compound `COc1ccc(C(=O)C2CCN(C3CN(C(=O)c4ccc(C)s4)CCC3O)CC2)cc1` (centres unmarked) [WW-III-17], the Ki at σ2 receptor [1] (setting [5]) was found to be 24400 ± 3630 nM.

`COc1ccc(C(=O)C2CCN(C3CN(C(=O)c4cccs4)CCC3O)CC2)cc1` (centres unmarked) [WW-III-21]: on σ2 receptor [1] (setting [5]), the Ki came to 6380 ± 1000 nM.

With `O=C(c1ncccc1OCCF)C1CCN(C2Cc3ccccc3CC2O)CC1` (centres unmarked) [TZ-4-2-12, (3-(2-fluoroethoxy)pyridin-2-yl)(1-(3-hydroxy-1,2,3,4-tetrahydronaphthalen-2-yl)piperidin-4-yl)methanone oxalate], at VAChT, the Ki is 76.4 ± 8.33 nM, the VAChT/σ selectivity result is “poor selectivity”, the σ1/VAChT is recorded as 262.0 and the σ2/VAChT is reported as 4.0. For the same compound, the Ki on σ2 receptor [3] is 303 ± 130 nM.

`O=C(c1cccnc1F)C1CCN(C2Cc3ccccc3CC2O)CC1` (centres unmarked) [TZ-4-1-122, (2-fluoropyridin-3-yl)(1-(3-hydroxy-1,2,3,4-tetrahydronaphthalen-2-yl)piperidin-4-yl)methanone]: at VAChT, the Ki turned out to be 12.7 ± 2.41 nM, the VAChT/σ selectivity result is on record as “moderate or high”, the σ1/VAChT is recorded as 102.2 and the σ2/VAChT is 277.9. Moreover, the Ki at σ2 receptor [3] was determined as 3530 ± 331 nM.

In the case of `COc1ccc(C(=O)C2CCN(C3CN(C(=O)c4ccc(F)cc4)CCC3O)CC2)cc1` (centres unmarked) [WW-1-107], the Ki at σ2 receptor [1] (setting [5]) was 2600 ± 363 nM.

As to `O=C(c1ccc(F)cc1)C1CCN(C2CCN(Cc3ccc(F)cc3)CC2O)CC1` (racemic) [Compound 14a, (1′-(4-Fluorobenzyl)-3′-hydroxy-[1,4′-bipiperidin]-4-yl)(4-fluorophenyl)methanone], at σ1 receptor (membrane preparations of guinea pig brain, mean ± SEM, at least three experiments, read-out: σ1 (Ki)), the Ki was < 5 nM and 0.48 nM.

With `Cc1ccsc1C(=O)N1CCC(O)C(N2CCC(C(=O)c3ccc(F)cc3)CC2)C1` (centres unmarked) [WW-III-39], the Ki at σ2 receptor [1] (setting [5]) was 4220 ± 205 nM.

With `COc1ccc(C(=O)C2CCN(C3CN(C(=O)c4cccnc4)CCC3O)CC2)cc1` (centres unmarked) [WW-III-13], the Ki on σ2 receptor [1] (setting [5]) worked out at 24300 ± 1910 nM.

As to `O=C(c1ccc(F)cc1)C1CCN(C2CN(C(=O)c3cccs3)CCC2O)CC1` (centres unmarked) [WW-III-43], on σ2 receptor [1] (setting [5]), the Ki came to 4050 ± 244 nM.

For the compound `COc1ccc(C(=O)C2CCN(C3CN(C(=O)c4ccccc4)CCC3O)CC2)cc1` (centres unmarked) [WW-1-67], the Ki at σ2 receptor [1] (setting [5]) came out at 4850 ± 649 nM.

For the compound `O=C(c1ccc(F)nc1)C1CCN(C2Cc3ccccc3CC2O)CC1` (centres unmarked) [TZ-4-1-154, (6-fluoropyridin-3-yl)(1-(3-hydroxy-1,2,3,4-tetrahydronaphthalen-2-yl)piperidin-4-yl)methanone oxalate], at VAChT, the Ki stood at 26.1 ± 2.41 nM, the VAChT/σ selectivity result was “moderate or high”, the σ1/VAChT came to 26.2 and the σ2/VAChT stood at 67.0. Moreover, on σ2 receptor [3], the Ki turned out to be 1750 ± 93 nM.

For `O=C(c1ccc(F)cc1)C1CCN(C2CCN(C(=O)c3ccc(F)cc3)CC2O)CC1` (centres unmarked) [Compound 15a, (3′-Hydroxy-[1,4′-bipiperidine]-1′,4-diyl)bis(4-fluorophenyl)methanone], the Ki in test [2] (setting [7]) came out at 3600 ± 499 nM.

For the compound `COc1ccc(C(=O)C2CCN(C3CN(Cc4ccccc4)CCC3O)CC2)cc1` (centres unmarked) [Compound 16g, (1′-Benzyl-4′-hydroxy-[1,3′-bipiperidin]-4-yl)(4-methoxyphenyl)methanone], the Ki was 8540 ± 1900 nM at σ2 receptor [1] (setting [8]) and 35.5 ± 11.1 nM in test [2] (setting [7]).

As for `O=C(c1ccc(F)cc1)C1CCN(C2CN(C(=O)c3cccnc3)CCC2O)CC1` (centres unmarked) [WW-III-45], the Ki on σ2 receptor [1] (setting [5]) stood at 15500 ± 2170 nM; in test [2] (setting [6]), 807 ± 139 nM.

In the case of `O=C(c1ccc(F)cc1)C1CCN(C2CN(C(=O)c3ccccc3)CCC2O)CC1` (centres unmarked) [WW-1-39], on σ2 receptor [1] (setting [5]), the Ki came out at 3950 ± 278 nM.

On to `Cn1c(C(=O)C2CCN(C3Cc4ccccc4CC3O)CC2)cccc1=O` (centres unmarked) [TZ-4-1-148, 6-(1-(3-Hydroxy-1,2,3,4-tetrahydronaphthalen-2-yl)piperidine-4-carbonyl)-1-methylpyridin-2(1H)-one], for which, at VAChT, the Ki came out at 182 ± 64.8 nM, the VAChT/σ selectivity result is on record as “poor selectivity”, the σ1/VAChT turned out to be 11.8 and the σ2/VAChT is reported as 18.3. The Ki on σ2 receptor [3] came to 3340 ± 127 nM.

`Cc1ccc(C(=O)N2CCC(O)C(N3CCC(C(=O)c4ccc(F)cc4)CC3)C2)s1` (centres unmarked) [WW-III-41]: at σ2 receptor [1] (setting [5]), the Ki is 16400 ± 1480 nM.

For the compound `O=C(c1ccc(F)cc1)C1CCN(C2CN(C(=O)c3ccc(F)cc3)CCC2O)CC1` (centres unmarked) [WW-1-123], the Ki on σ2 receptor [1] (setting [5]) amounted to 1380 ± 135 nM; in test [2] (setting [6]) it was 8700 ± 1620 nM.

Consider `O=C(c1cncc(F)c1)C1CCN(C2Cc3ccccc3CC2O)CC1` (centres unmarked) [TZ-4-1-96, (5-Fluoropyridin-3-yl)(1-(3-hydroxy-1,2,3,4-tetrahydronaphthalen-2-yl)piperidin-4-yl)methanone oxalate], for which, at VAChT, the Ki turned out to be 10.1 ± 1.54 nM, the VAChT/σ selectivity entry is on record as “moderate or high”, the σ1/VAChT is 70.2 and the σ2/VAChT amounted to 167.3. Moreover, the Ki at σ2 receptor [3] was 1690 ± 56 nM.

With “(4′-Hydroxy-1′-(pyridin-4-ylmethyl)-[1,3′-bipiperidin]-4-yl)(4-methoxyphenyl)methanone [Compound 16h]”, the Ki at σ2 receptor [1] (setting [8]) amounted to 17100 ± 3860 nM.

Consider `Cn1ccc(C(=O)C2CCN(C3Cc4ccccc4CC3O)CC2)c1` (centres unmarked) [TZ-4-1-114, (1-(3-Hydroxy-1,2,3,4-tetrahydronaphthalen-2-yl)piperidin-4-yl)(1-methyl-1H-pyrrol-3-yl)methanone oxalate], for which the Ki at σ2 receptor [3] came out at 7710 ± 1060 nM.
